From EP2818471A1, “Nitrogen bicyclic compounds as inhibitors for Scyl1 and Grk5” (Max-Planck-Gesellschaft zur Förderung der Wissenschaften …, priority 2013, dated 2014)

system: beta-TC6 cells; experiment: Insulin HTRF assay, relative activity Ar normalized to sunitinib; type: cell-based; settings: Mus musculus, normalized to positive control sunitinib (5 µM = 100%), Table 10
Method in brief: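 Relative activity Ar was scaled between 0% and 100% controls, with sunitinib at 5 µM f.c. as reference. Insulin released by beta-TC6 cells was quantified by sandwich HTRF (Eu-cryptate/XL665 antibodies, 120 min RT). Cells had been seeded 24 or 48 h, then treated 2–4 h at 37°C in induction buffer, 0.5% DMSO.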

| Compound | Emax [%] |
| --- | --- |
| COc1cccc(-c2cn3c(NC(=O)Cc4ccsc4)cnc3cn2)c1 [compound 279, N-[6-(3-methoxyphenyl)imidazo[1,2-a]pyrazin-3-yl]-2-(3-thienyl)acetamide] | 20 to 50 |
| CN(C)CCCOc1ccc(-c2cn3c(-c4ccc(N(C)C)cc4)cnc3cn2)cn1 [compound 281, 4-[6-[6-[3-(dimethylamino)propoxy]-3-pyridyl]imidazo[1,2-a]pyrazin-3-yl]-N,N-dimethyl-aniline] | 50 to 100 |
| CN(C)c1ccc(-c2cnc3cnc(-c4ccc(NCCN5CCOCC5)nc4)cn23)cc1 [compound 282, 5-[3-(4-dimethylaminophenyl)imidazo[1,2-a]pyrazin-6-yl]-N-(2-morpholinoethyl)pyridin-2-amine] | 50 to 100 |
| CN(C)c1ccc(-c2cnc3cnc(-c4ccccc4N(C)C)cn23)cc1 [compound 283, 2-[3-(4-dimethylaminophenyl)imidazo[1,2-a]pyrazin-6-yl]-N,N-dimethyl-aniline] | 20 to 50 |
| CN(C)c1ccc(-c2cnc3cnc(-c4ccc(O)cc4)cn23)cc1 [compound 284, 4-[3-(4-dimethylaminophenyl)imidazo[1,2-a]pyrazin-6-yl]phenol] | 50 to 100 |
| CN(C)CCCNC(=O)c1ccc(-c2cn3c(-c4ccc(N(C)C)cc4)cnc3cn2)cc1 [compound 285, 4-[3-(4-dimethylaminophenyl)imidazo[1,2-a]pyrazin-6-yl]-N-[3-(dimethylamino)propyl]benzamide] | 50 to 100 |
| CN(C)c1ccc(-c2cnc3cnc(-c4cccc(C(=O)NCCO)c4)cn23)cc1 [compound 286, 3-[3-(4-dimethylaminophenyl)imidazo[1,2-a]pyrazin-6-yl]-N-(2-hydroxyethyl)benzamide] | 20 to 50 |
| CN(C)c1ccc(-c2cnc3cnc(-c4ccc(CO)cc4)cn23)cc1 [compound 287, [4-[3-(4-dimethylaminophenyl)imidazo[1,2-a]pyrazin-6-yl]phenyl]methanol] | 50 to 100 |
| COc1ccc(-c2cn3c(-c4ccc(N(C)C)cc4)cnc3cn2)cn1 [compound 288, 4-[6-(6-methoxy-3-pyridyl)imidazo[1,2-a]pyrazin-3-yl]-N,N-dimethyl-aniline] | 50 to 100 |
| CN(C)CCNC(=O)c1ccc(-c2cn3c(-c4ccc(N(C)C)cc4)cnc3cn2)cc1 [compound 289, N-(2-dimethylaminoethyl)-4-[3-(4-dimethylaminophenyl)imidazo[1,2-a]pyrazin-6-yl]benzamide] | 50 to 100 |
| CN(C)c1ccc(-c2cnc3cnc(-c4ccc(C(=O)NCCO)cc4)cn23)cc1 [compound 290, 4-[3-(4-dimethylaminophenyl)imidazo[1,2-a]pyrazin-6-yl]-N-(2-hydroxyethyl)benzamide] | 50 to 100 |
| CN(C)c1ccc(-c2cnc3cnc(-c4ccc(C(=O)N5CCOCC5)cc4)cn23)cc1 [compound 291, [4-[3-(4-dimethylaminophenyl)imidazo[1,2-a]pyrazin-6-yl]phenyl]-morpholino-methanone] | 20 to 50 |
| CN(C)c1ccc(-c2cnc3cnc(-c4cccc(C(N)=O)c4)cn23)cc1 [compound 292, 3-[3-(4-dimethylaminophenyl)imidazo[1,2-a]pyrazin-6-yl]benzamide] | 20 to 50 |
| CN(C)C(=O)c1cccc(-c2cn3c(-c4ccc(N(C)C)cc4)cnc3cn2)c1 [compound 293, 3-[3-(4-dimethylaminophenyl)imidazo[1,2-a]pyrazin-6-yl]-N,N-dimethyl-benzamide] | 20 to 50 |
| CN(C)c1ccc(-c2cnc3cnc(-c4ccccc4Cl)cn23)cc1 [compound 294, 4-[6-(2-chlorophenyl)imidazo[1,2-a]pyrazin-3-yl]-N,N-dimethyl-aniline] | 20 to 50 |
| CN(C)c1ccc(-c2cnc3cnc(-c4cccc(NS(C)(=O)=O)c4)cn23)cc1 [compound 295, N-[3-[3-(4-dimethylaminophenyl)imidazo[1,2-a]pyrazin-6-yl]phenyl]methanesulfonamide] | 20 to 50 |
| c1ccc(-c2cnc3cnc(-c4ccsc4)cn23)cc1 [compound 296, 3-phenyl-6-(3-thienyl)imidazo[1,2-a]pyrazine] | 20 to 50 |
| Fc1cccc(-c2cn3c(-c4ccccc4)cnc3cn2)c1 [compound 297, 6-(3-fluorophenyl)-3-phenyl-imidazo[1,2-a]pyrazine] | 20 to 50 |
| c1ccc(-c2cnc3cnc(-c4cccs4)cn23)cc1 [compound 298, 3-phenyl-6-(2-thienyl)imidazo[1,2-a]pyrazine] | 20 to 50 |
| O=C(NC1CC1)c1ccc(-c2cn3c(-c4ccccc4)cnc3cn2)cc1 [compound 299, N-cyclopropyl-4-(3-phenylimidazo[1,2-a]pyrazin-6-yl)benzamide] | 20 to 50 |
| c1ccc(-c2cn3c(-c4ccc5c(c4)OCO5)cnc3cn2)cc1 [compound 300, 3-(1,3-benzodioxol-5-yl)-6-phenyl-imidazo[1,2-a]pyrazine] | 50 to 100 |
| c1cc(-c2cn3c(-c4ccc5c(c4)OCO5)cnc3cn2)cs1 [compound 301, 3-(1,3-benzodioxol-5-yl)-6-(3-thienyl)imidazo[1,2-a]pyrazine] | 50 to 100 |
| CCOc1cccc(-c2cn3c(-c4ccc5c(c4)OCO5)cnc3cn2)c1 [compound 302, 3-(1,3-benzodioxol-5-yl)-6-(3-ethoxyphenyl)imidazo[1,2-a]pyrazine] | 50 to 100 |

| Compound | Emax [%] |
| --- | --- |
| Clc1cccc(-c2cn3c(-c4ccc5c(c4)OCO5)cnc3cn2)c1 [compound 303, 3-(1,3-benzodioxol-5-yl)-6-(3-chlorophenyl)imidazo[1,2-a]pyrazine] | 50 to 100 |
| Fc1cccc(-c2cn3c(-c4ccc5c(c4)OCO5)cnc3cn2)c1 [compound 304, 3-(1,3-benzodioxol-5-yl)-6-(3-fluorophenyl)imidazo[1,2-a]pyrazine] | 50 to 100 |
| Cc1ccccc1-c1cn2c(-c3ccc4c(c3)OCO4)cnc2cn1 [compound 305, 3-(1,3-benzodioxol-5-yl)-6-(o-tolyl)imidazo[1,2-a]pyrazine] | 20 to 50 |
| c1csc(-c2cn3c(-c4ccc5c(c4)OCO5)cnc3cn2)c1 [compound 306, 3-(1,3-benzodioxol-5-yl)-6-(2-thienyl)imidazo[1,2-a]pyrazine] | 50 to 100 |
| c1ccc(Cn2cc(-c3cn4c(-c5ccc6c(c5)OCO6)cnc4cn3)cn2)cc1 [compound 307, 3-(1,3-benzodioxol-5-yl)-6-(1-benzylpyrazol-4-yl)imidazo[1,2-a]pyrazine] | 50 to 100 |
| COc1cc(OC)cc(-c2cn3c(-c4ccc5c(c4)OCO5)cnc3cn2)c1 [compound 308, 3-(1,3-benzodioxol-5-yl)-6-(3,5-dimethoxyphenyl)imidazo[1,2-a]pyrazine] | 50 to 100 |
| Nc1ccc(-c2cn3c(-c4ccc5c(c4)OCO5)cnc3cn2)cn1 [compound 309, 5-[3-(1,3-benzodioxol-5-yl)imidazo[1,2-a]pyrazin-6-yl]pyridin-2-amine] | 10 to 20 |
| CC(C)Oc1cccc(-c2cn3c(-c4ccc5c(c4)OCO5)cnc3cn2)c1 [compound 310, 3-(1,3-benzodioxol-5-yl)-6-(3-isopropoxyphenyl)imidazo[1,2-a]pyrazine] | 50 to 100 |
| c1ccc(Oc2ccccc2-c2cn3c(-c4ccncc4)cnc3cn2)cc1 [compound 311, 6-(2-phenoxyphenyl)-3-(4-pyridyl)imidazo[1,2-a]pyrazine] | 20 to 50 |
| Cc1cc(-c2cn3c(-c4ccncc4)cnc3cn2)cc(C)c1O [compound 312, 2,6-dimethyl-4-[3-(4-pyridyl)imidazo[1,2-a]pyrazin-6-yl]phenol] | 20 to 50 |
| c1csc(-c2cn3c(-c4ccncc4)cnc3cn2)c1 [compound 314, 3-(4-pyridyl)-6-(2-thienyl)imidazo[1,2-a]pyrazine] | 20 to 50 |
| c1cncc(-c2cnc3cnc(-c4ccc(N5CCOCC5)cc4)cn23)c1 [compound 315, 4-[4-[3-(3-pyridyl)imidazo[1,2-a]pyrazin-6-yl]phenyl]morpholine] | 20 to 50 |
| c1cncc(-c2cnc3cnc(-c4cc5ccccc5s4)cn23)c1 [compound 316, 6-(benzothiophen-2-yl)-3-(3-pyridyl)imidazo[1,2-a]pyrazine] | 20 to 50 |
| CSc1ccc(-c2cn3c(-c4cccnc4)cnc3cn2)cc1 [compound 317, 6-(4-methylsulfanylphenyl)-3-(3-pyridyl)imidazo[1,2-a]pyrazine] | 20 to 50 |
| CS(=O)(=O)Nc1cccc(-c2cn3c(-c4cccnc4)cnc3cn2)c1 [compound 318, N-[3-[3-(3-pyridyl)imidazo[1,2-a]pyrazin-6-yl]phenyl]methanesulfonamide] | 20 to 50 |
| c1coc(-c2cn3c(-c4ccsc4)cnc3cn2)c1 [compound 319, 6-(2-furyl)-3-(3-thienyl)imidazo[1,2-a]pyrazine] | 20 to 50 |
| Fc1ccc(-c2cn3c(-c4ccsc4)cnc3cn2)cc1Cl [compound 320, 6-(3-chloro-4-fluoro-phenyl)-3-(3-thienyl)imidazo[1,2-a]pyrazine] | 20 to 50 |
| O=C(NCCO)c1ccc(-c2cn3c(-c4ccsc4)cnc3cn2)cc1 [compound 321, N-(2-hydroxyethyl)-4-[3-(3-thienyl)imidazo[1,2-a]pyrazin-6-yl]benzamide] | 10 to 20 |
| c1csc(-c2cn3c(-c4ccsc4)cnc3cn2)c1 [compound 322, 6-(2-thienyl)-3-(3-thienyl)imidazo[1,2-a]pyrazine] | 50 to 100 |
| COc1cc(OC)cc(-c2cn3c(-c4ccsc4)cnc3cn2)c1 [compound 323, 6-(3,5-dimethoxyphenyl)-3-(3-thienyl)imidazo[1,2-a]pyrazine] | 20 to 50 |
| Oc1ccc(-c2cnc3cnc(-c4ccc(Cl)cc4)cn23)cc1 [compound 324, 4-[6-(4-chlorophenyl)imidazo[1,2-a]pyrazin-3-yl]phenol] | 20 to 50 |
| CC(C)N1CCN(c2ccc(-c3cn4c(-c5ccc(O)cc5)cnc4cn3)cc2)CC1 [compound 325, 4-[6-[4-(4-isopropylpiperazin-1-yl)phenyl]imidazo[1,2-a]pyrazin-3-yl]phenol] | 20 to 50 |
| O=C(NC1CC1)c1ccc(-c2cn3c(-c4ccc(O)cc4)cnc3cn2)cc1 [compound 326, N-cyclopropyl-4-[3-(4-hydroxyphenyl)imidazo[1,2-a]pyrazin-6-yl]benzamide] | 20 to 50 |
